Converted amounts (≈) assume the structure as drawn. Structures can show the parent of a compound that is named as a salt. Where two headings read alike, the source gives them in different places. Marks after values point to notes of the source that are not given here.
Key:
[1] = system: A/California/147/2024 (CA/147, wildtype); set-up: species or system BALB/c mice; settings: mouse, in vivo; for Survival (%): po
[2] = target: NA of A/bald eagle/FL/2022 (H5N1) (Influenza A virus, UniProt Q9Q0U7); format: biochemical; settings: read-out: NA inhibitor IC50 ± SD
[3] = target: NA of A/Louisiana/50/2017 (H3N2) (Influenza A virus, UniProt A0A193ACB1); format: biochemical; settings: read-out: NA inhibitor IC50 ± SD
NA of A/Nevada/10/2025 = NA of A/Nevada/10/2025 (Influenza A virus, UniProt Q9Q0U7); format: biochemical, influenza A(H5N1) virus; settings: read-out: NA inhibitor IC50 ± SD
[4] = target: NA of A/California/151/2024 (Influenza A virus, UniProt Q9Q0U7); format: biochemical, influenza A(H5N1) virus; settings: read-out: NA inhibitor IC50 ± SD
[5] = target: recNA A/California/148/2024 (genotype B3.13) WT (Influenza A virus, UniProt Q9Q0U7); format: biochemical, influenza A(H5N1) virus
NA of A/Iowa/24/2024 = NA of A/Iowa/24/2024 (Influenza A virus, UniProt Q9Q0U7); format: biochemical, influenza A(H5N1) virus; settings: read-out: NA inhibitor IC50 ± SD
NA of A/Wyoming/01/2025 = NA of A/Wyoming/01/2025 (Influenza A virus, UniProt Q9Q0U7); format: biochemical, influenza A(H5N1) virus; settings: read-out: NA inhibitor IC50 ± SD
[6] = target: NA of A/California/173/2024 (Influenza A virus, UniProt Q9Q0U7); format: biochemical, influenza A(H5N1) virus; settings: read-out: NA inhibitor IC50 ± SD
[7] = target: NA of A/Illinois/45/2019 (H1N1)pdm09 (Influenza A virus, UniProt A0A0X9QTS2); format: biochemical; settings: read-out: NA inhibitor IC50 ± SD
[8] = target: NA of A/California/153/2024 (Influenza A virus, UniProt Q9Q0U7); format: biochemical, influenza A(H5N1) virus; settings: read-out: NA inhibitor IC50 ± SD
[9] = target: NA of A/California/152/2024 (Influenza A virus, UniProt Q9Q0U7); format: biochemical, influenza A(H5N1) virus; settings: read-out: NA inhibitor IC50 ± SD
[10] = target: NA of A/Illinois/08/2018 (H1N1)pdm09 (Influenza A virus, UniProt A0A0X9QTS2); format: biochemical; settings: read-out: NA inhibitor IC50 ± SD
[11] = target: recNA A/Washington/239/2024 (genotype D1.1) WT (Influenza A virus, UniProt Q8QPK2); format: biochemical, influenza A(H5N1) virus
[12] = target: NA of A/California/147/2024 (Influenza A virus, UniProt Q9Q0U7); format: biochemical, influenza A(H5N1) virus; settings: read-out: NA inhibitor IC50 ± SD
[13] = target: NA of A/California/148/2024 (Influenza A virus, UniProt Q9Q0U7); format: biochemical, influenza A(H5N1) virus; settings: read-out: NA inhibitor IC50 ± SD
[14] = target: NA of Genotype B3.13 viruses (n = 10) (Influenza A virus, UniProt Q9Q0U7); format: biochemical, influenza A(H5N1) virus; settings: read-out: NA inhibitor IC50, median
[15] = target: NA of Genotype D1.1 viruses (n = 7) (Influenza A virus, UniProt Q9Q0U7); format: biochemical, influenza A(H5N1) virus; settings: read-out: NA inhibitor IC50, median
[16] = target: NA of A/California/155/2024 (Influenza A virus, UniProt Q9Q0U7); format: biochemical, influenza A(H5N1) virus; settings: read-out: NA inhibitor IC50 ± SD
A/California/148/2024 = experiment: microbe, parasite or virus in culture; format: cell-based, influenza A(H5N1) virus; settings: Influenza A virus, read-out: PA inhibitor EC50 ± SD
[17] = system: A/bald eagle/FL/2022 (H5N1); experiment: microbe, parasite or virus in culture; format: cell-based, influenza A(H5N1) virus; settings: Influenza A virus
A/California/147/2024 = experiment: microbe, parasite or virus in culture; format: cell-based, influenza A(H5N1) virus; settings: Influenza A virus, read-out: PA inhibitor EC50 ± SD
[18] = system: Genotype D1.1 viruses (n = 7); experiment: microbe, parasite or virus in culture; format: cell-based, influenza A(H5N1) virus; settings: Influenza A virus, read-out: PA inhibitor EC50, median
A/California/151/2024 = experiment: microbe, parasite or virus in culture; format: cell-based, influenza A(H5N1) virus; settings: Influenza A virus, read-out: PA inhibitor EC50 ± SD
A/California/152/2024 = experiment: microbe, parasite or virus in culture; format: cell-based, influenza A(H5N1) virus; settings: Influenza A virus, read-out: PA inhibitor EC50 ± SD
[19] = system: Genotype B3.13 viruses (n = 10); experiment: microbe, parasite or virus in culture; format: cell-based, influenza A(H5N1) virus; settings: Influenza A virus, read-out: PA inhibitor EC50, median
A/Nevada/10/2025 = experiment: microbe, parasite or virus in culture; format: cell-based, influenza A(H5N1) virus; settings: Influenza A virus, read-out: PA inhibitor EC50 ± SD
A/California/155/2024 = experiment: microbe, parasite or virus in culture; format: cell-based, influenza A(H5N1) virus; settings: Influenza A virus, read-out: PA inhibitor EC50 ± SD
[20] = system: A/Louisiana/50/2017 (H3N2); experiment: microbe, parasite or virus in culture; format: cell-based; settings: Influenza A virus, H3N2, read-out: PA inhibitor EC50 ± SD
[21] = system: clade 2.3.4.4b HPAI A(H5N1) viruses (B3.13 and D1.1); experiment: microbe, parasite or virus in culture; format: cell-based; settings: for EC50: Influenza A virus, H5N1, read-out: 50% effective concentrations (EC50s), range over viruses
A/California/153/2024 = experiment: microbe, parasite or virus in culture; format: cell-based, influenza A(H5N1) virus; settings: Influenza A virus, read-out: PA inhibitor EC50 ± SD
[22] = system: A/Illinois/08/2018 (H1N1)pdm09; experiment: microbe, parasite or virus in culture; format: cell-based, influenza A(H1N1)pdm09 virus; settings: Influenza A virus, H1N1, read-out: PA inhibitor EC50 ± SD
[23] = system: A/Wisconsin/53/2009 (H1N1)pdm09; experiment: microbe, parasite or virus in culture; format: cell-based, influenza A(H1N1)pdm09 virus; settings: Influenza A virus, H1N1, read-out: EC50 ± SD

COC(=O)OCOc1c2n(ccc1=O)N([C@@H]1c3ccccc3SCc3c1ccc(F)c3F)[C@@H]1COCCN1C2=O [Baloxavir marboxil, baloxavir marboxil]
Mean TTD (day) ([1]; 5 mg/kg): 11^c day | Wt. Loss (%), mean maximum weight loss ([1]; 5 mg/kg): 5% | Wt. Loss (%), mean maximum weight loss ([1]; 15 mg/kg): 6% | Wt. Loss (%), mean maximum weight loss ([1]; 45 mg/kg): 4% | Survival (%) ([1]; 5 mg/kg): 7/8 (87.5) % | Survival (%) ([1]; 15 mg/kg): 8/8 (100) % | Survival (%) ([1]; 45 mg/kg): 8/8 (100) %

peramivir
IC50 [2]: 0.08 ± 0.02 nM | IC50 [3]: 0.07 ± 0.01 nM | IC50 (NA of A/Nevada/10/2025): 0.07 nM | IC50 [4]: 0.07 nM | IC50 [5]: 0.08 nM | IC50 (NA of A/Iowa/24/2024): 0.07 nM | IC50 (NA of A/Wyoming/01/2025): 0.07 nM | IC50 [6]: 0.06 nM | IC50 [7]: 0.04 ± 0.01 nM | IC50 [8]: 0.06 nM | IC50 [9]: 0.08 nM | IC50 [10]: 0.04 ± 0.01 nM | IC50 [11]: 0.06 nM | IC50 [12]: 0.07 nM | IC50 [13]: 0.07 nM | IC50 [14]: 0.07 nM | IC50 [15]: 0.07 nM | IC50 [16]: 0.08 nM

O=C1c2c(O)c(=O)ccn2N([C@@H]2c3ccccc3SCc3c2ccc(F)c3F)[C@@H]2COCCN12 [Baloxavir, baloxavir acid]
EC50 (A/California/148/2024): 0.26 nM | EC50 ([17]; H5N1, read-out: PA inhibitor EC50 ± SD): 0.39 ± 0.16 nM | EC50 (A/California/147/2024): 0.4 nM | EC50 [18]: 0.34 nM | EC50 (A/California/151/2024): 0.72 nM | EC50 (A/California/152/2024): 0.45 nM | EC50 [19]: 0.5 nM | infectious virus in any organs of treated mice [1]: not detected | loss of initial weight ([1]; 5 mg/kg): ≤ 6% | Survival (%) ([1]; 5 mg/kg): 87.5% | EC50 (A/Nevada/10/2025): 0.34 nM | EC50 (A/California/155/2024): 0.41 nM | EC50 [20]: 0.8 ± 0.28 nM | EC50s, in words [21]: sub-nanomolar | EC50 (A/California/153/2024): 0.59 nM | EC50 [22]: 0.96 ± 0.37 nM

NC12CC3CC(CC(C3)C1)C2 [Amantadine, amantadine hydrochloride]
EC50 ([17]; H5N1, read-out: EC50 ± SD): 20.5 ± 4.96 ng/mL | EC50 [23]: 25.9 ± 1.51 ng/mL | EC50 [21]: 9.25 to 21.5 ng/mL

oseltamivir carboxylate
IC50 [7]: 0.28 ± 0.04 nM | IC50 [10]: 0.34 ± 0.03 nM

CC(=O)N[C@H]1[C@H]([C@H](O)[C@H](O)CO)OC(C(=O)O)=C[C@@H]1N=C(N)N [Zanamivir, zanamivir]
IC50 (NA of A/Nevada/10/2025): 0.36 nM | IC50 (NA of A/Iowa/24/2024): 0.34 nM | IC50 (NA of A/Wyoming/01/2025): 0.46 nM | IC50 [6]: 0.23 nM | IC50 [16]: 0.16 nM

CC(N)C12CC3CC(CC(C3)C1)C2 (stereo not drawn) [Rimantadine, rimantadine]
EC50 ([17]; H5N1, read-out: EC50 ± SD): 5.74 ± 1.31 ng/mL | EC50 [23]: 6.08 ± 0.9 ng/mL (≈ 0.0339 µM) | EC50 [21]: 3.14 to 6.48 ng/mL (≈ 0.0175 to 0.0361 µM)
